# Data from publication PMC4028973 (Journal of the American Chemical Society, 2014).
# Read-outs that look alike come from different tables or passages of the source.
# Tests used:
# SbnE [1] = target: T1, SbnE (Staphylococcus aureus, UniProt Q2G1M9); type: biochemical, S. aureus
# T1 sequence (Q2G1M9 1-578): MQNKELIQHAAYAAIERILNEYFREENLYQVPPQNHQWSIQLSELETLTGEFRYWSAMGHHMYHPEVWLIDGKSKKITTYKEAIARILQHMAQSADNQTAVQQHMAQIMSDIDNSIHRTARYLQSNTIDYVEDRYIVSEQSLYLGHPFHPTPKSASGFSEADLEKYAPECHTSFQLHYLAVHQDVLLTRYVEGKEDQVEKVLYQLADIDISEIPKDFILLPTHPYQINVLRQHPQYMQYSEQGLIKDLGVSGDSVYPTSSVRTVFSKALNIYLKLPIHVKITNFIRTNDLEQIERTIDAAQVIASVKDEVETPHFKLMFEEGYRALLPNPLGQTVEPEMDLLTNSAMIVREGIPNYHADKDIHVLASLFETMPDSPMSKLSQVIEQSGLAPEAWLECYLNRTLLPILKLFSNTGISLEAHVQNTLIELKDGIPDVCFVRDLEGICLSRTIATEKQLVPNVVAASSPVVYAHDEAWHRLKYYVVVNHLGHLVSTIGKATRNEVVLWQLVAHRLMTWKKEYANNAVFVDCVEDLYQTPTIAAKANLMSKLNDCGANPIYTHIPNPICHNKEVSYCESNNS
# AsbA [2] = target: T2, AsbA (Bacillus anthracis, UniProt A0A0F7RJ52); type: biochemical, B. anthracis; settings: read-out: IC50 against AsbA
# T2 sequence (A0A0F7RJ52 whole entry, looked up): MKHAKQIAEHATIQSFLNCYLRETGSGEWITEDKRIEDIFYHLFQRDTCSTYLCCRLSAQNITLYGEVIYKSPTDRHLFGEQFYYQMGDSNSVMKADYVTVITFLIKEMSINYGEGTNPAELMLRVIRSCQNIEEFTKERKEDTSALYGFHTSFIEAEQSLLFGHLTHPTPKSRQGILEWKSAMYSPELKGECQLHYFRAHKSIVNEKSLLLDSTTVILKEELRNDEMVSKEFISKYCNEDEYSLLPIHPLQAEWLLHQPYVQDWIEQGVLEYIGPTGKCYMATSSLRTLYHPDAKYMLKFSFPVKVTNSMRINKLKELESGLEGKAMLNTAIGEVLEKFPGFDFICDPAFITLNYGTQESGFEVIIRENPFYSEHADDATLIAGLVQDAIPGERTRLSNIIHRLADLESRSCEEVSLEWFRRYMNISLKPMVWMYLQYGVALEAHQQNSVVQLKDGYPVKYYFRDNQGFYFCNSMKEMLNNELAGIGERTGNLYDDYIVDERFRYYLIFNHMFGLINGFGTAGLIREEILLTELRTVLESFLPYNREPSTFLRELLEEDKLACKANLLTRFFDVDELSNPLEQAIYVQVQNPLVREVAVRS
# [3] = system: B. anthracis (Sterne 34F2); type: cell-based
# SbnE [4] = target: T1, SbnE; type: biochemical, S. aureus; settings: read-out: IC50 against SbnE
# MRSA (USA 300) = type: cell-based, S. aureus
# AsbA [5] = target: T2, AsbA; type: biochemical, B. anthracis
# E. coli (MC 1061) = type: cell-based
# AsbB = AsbB (Bacillus anthracis, UniProt Q81RQ8); type: biochemical, B. anthracis; settings: for IC50: read-out: IC50 against AsbB
# AsbB, sequence (Q81RQ8 whole entry, looked up): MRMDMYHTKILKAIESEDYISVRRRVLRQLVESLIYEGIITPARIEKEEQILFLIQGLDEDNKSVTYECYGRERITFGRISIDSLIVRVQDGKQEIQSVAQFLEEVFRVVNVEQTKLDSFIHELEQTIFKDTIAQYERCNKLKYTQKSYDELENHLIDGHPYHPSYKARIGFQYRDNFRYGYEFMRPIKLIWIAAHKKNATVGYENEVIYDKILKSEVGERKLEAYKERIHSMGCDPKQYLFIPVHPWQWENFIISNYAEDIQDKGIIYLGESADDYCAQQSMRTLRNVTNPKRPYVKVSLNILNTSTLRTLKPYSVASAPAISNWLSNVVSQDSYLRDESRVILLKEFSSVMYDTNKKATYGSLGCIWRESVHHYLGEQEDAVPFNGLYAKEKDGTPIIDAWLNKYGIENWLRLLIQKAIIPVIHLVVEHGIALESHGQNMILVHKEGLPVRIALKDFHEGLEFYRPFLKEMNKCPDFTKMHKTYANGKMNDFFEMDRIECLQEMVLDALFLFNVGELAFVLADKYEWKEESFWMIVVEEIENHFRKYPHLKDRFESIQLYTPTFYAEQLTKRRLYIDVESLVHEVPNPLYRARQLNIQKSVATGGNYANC
# S. flexneri (BS103) = type: cell-based, Shigella flexneri
# S. typhimurium = type: cell-based, Salmonella typhimurium
# S. aureus (Newman) = type: cell-based
smiles,measurement,setting,value
"CCC(=O)[C@H](C)C[C@@H](C)C[C@H](C)CC[C@@H](O)C[C@@H](O)[C@@H](CC(C)C)[C@@H](O)c1cc(O)cc(O)c1 [BmcA, baulamycin A]",mode of inhibition of SbnE,SbnE [1],"reversible, competitive"
same,Ki,"SbnE [1]; read-out: Ki, SbnE, with respect to ATP",680 µM
same,Ki,"SbnE [1]; read-out: Ki, SbnE, with respect to citric acid",50 µM
same,Ki,"SbnE [1]; read-out: Ki, SbnE, with respect to polyamine substrate",210 µM
same,IC50,AsbA [2],180 µM
same,IC50,"[3]; read-out: IDM IC50, B. anthracis (Sterne 34F2)",110 µM
same,IC50,"[3]; read-out: IRM IC50, B. anthracis (Sterne 34F2)",120 µM
same,IC50,SbnE [4],4.8 µM
same,IC50,"MRSA (USA 300); read-out: IDM IC50, MRSA (USA 300)",130 µM
same,IC50,"MRSA (USA 300); read-out: IRM IC50, MRSA (USA 300)",130 µM
same,mode of inhibition of AsbA,AsbA [5],"reversible, competitive"
same,Ki,"AsbA [5]; read-out: Ki, AsbA, with respect to ATP",230 µM
same,Ki,"AsbA [5]; read-out: Ki, AsbA, with respect to citric acid",110 µM
same,Ki,"AsbA [5]; read-out: Ki, AsbA, with respect to polyamine substrate",170 µM
same,IC50,"E. coli (MC 1061); read-out: IDM IC50, E. coli (MC 1061)",4.2 µM
same,IC50,"E. coli (MC 1061); read-out: IRM IC50, E. coli (MC 1061)",150 µM
same,inhibition against AsbB (in words),AsbB,negligible
same,IC50,AsbB,> 1 mM
same,IC50,"S. flexneri (BS103); read-out: IDM IC50, S. flexneri (BS103)",20 µM
same,IC50,"S. flexneri (BS103); read-out: IRM IC50, S. flexneri (BS103)",46 µM
same,IC50,"S. typhimurium; read-out: IC50, S. typhimurium, iron-depleted conditions",> 1 mM
same,IC50,"S. typhimurium; read-out: IC50, S. typhimurium, iron-rich conditions",> 1 mM
same,IC50,"S. typhimurium; read-out: IDM IC50, S. typhimurium",> 1 mM
same,IC50,"S. typhimurium; read-out: IRM IC50, S. typhimurium",> 1 mM
same,IC50,"S. aureus (Newman); read-out: IDM IC50, S. aureus (Newman)",69 µM
same,IC50,"S. aureus (Newman); read-out: IRM IC50, S. aureus (Newman)",86 µM
"CC(=O)[C@H](C)C[C@@H](C)C[C@H](C)CC[C@@H](O)C[C@@H](O)[C@@H](CC(C)C)[C@@H](O)c1cc(O)cc(O)c1 [BmcB, baulamycin B]",IC50,AsbA [2],200 µM
same,IC50,SbnE [4],19 µM
same,inhibition against AsbB (in words),AsbB,negligible
same,IC50,AsbB,> 1 mM
same,potency against S. aureus (Newman) cultures compared with BmcA (in words),S. aureus (Newman),significantly less potent
